From patent publication US11291642B2, “Dimethyl fumarate particles and pharmaceutical compositions thereof” (BIOGEN MA INC., priority 2015, dated 2022)
Where a name gives a salt, the structure may show the parent alone.

How the values were obtained:
Assay type in all cases: physicochemical
[1] = FT4 Powder Rheometer dynamic testing (flow rate index, specific energy); details: for Flow Rate Index: flow energy at 10 mm/s / 100 mm/s
Experimental: In certain embodiments, powder characterization described herein can be determined using the FT4 Powder Rheometer (Freeman Technology Ltd, Tewkesbury, UK) with the 25 mm vessel assembly having 23.5 mm diameter blades, vented piston, a segmented rotational shear cell accessory and a 10 or 25 ml borosilicate vessel. Powder testing can be generally divided into three categories: dynamic tests, permeability test and shear test. Dynamic testing uses the 23.5 mm diameter blades and a 25 ml powder sample in the borosiliate test vessel. Powder is filled into the vessel and the blades are simultaneously rotated and moved axially into the powder sample as the axial and rotational forces are measure and used to calculate the dynamic flowability parameters, such as flow rate index (FRI) and Specific Energy (SE). As used herein, the “flow rate index” (or FRI) is a measure of a powder's sensitivity to variable flow rate and is obtained as the ratio of the total energy required to induce powder flow at 10 mm/s and 100 mm/s blade tip speed. A larger deviation from 1 indicates greater sensitivity of a powder to variable flow rate. FRI=Flow Energy@10mm/s/Flow Energy@100mm/s As used herein, “specific energy” or SE is a measure of the powder flow in low stress environment and is derived from the shear forces acting on the blades as they rotate upward through the powder. The SE is recorded as the flow energy of the powder normalized by its weight in mJ/g during the upward spiral movement of the blades in a FT4 Powder Rheometer describe above. A lower SE is an indication of a less cohesive powder and better flow properties. DMF powder characterization was conducted using the FT4 Powder Rheometer (Freeman Technology Ltd, Tewkesbury, UK) using the 25 mm vessel assembly which consists of 23.5 mm diameter blades, vented piston, a segmented rotational shear cell accessory; and a 10 or 25 ml borosilicate vessel. All powders were pre-conditioned by the instrument's built-in conditioning step. Dynamic testing used the 23.5 mm diameter blades and a 25 ml powder sample in the borosilicate test vessel. Powder was filled into the vessel. The blades were simultaneously rotated and moved axially into the powder sample as the axial and rotational forces were measured and used to calculate the dynamic flowability parameters. Among dynamic parameters tested are Flow rate Index (FRI) and Specific Energy (SE). Their measurement techniques are described below: The FRI is a measure of a powder's sensitivity to variable flow rate and it is obtained as the ratio of the total energy required to induce powder flow at 10 mm/s and 100 mm/s blade tip speed. A larger deviation from 1 indicates greater sensitivity of a powder to variable flow rate. SE is a measure of the powder flow in low stress environment and is derived from the shear forces acting on the blades as they rotate upward through the powder. The SE is recorded as the flow energy of the powder normalized by its weight in […] during the upward spiral movement of the blades. A lower SE is an indication of a less cohesive powder and better flow properties.

[2] = Particle size of dimethyl fumarate by Malvern laser diffraction; details: for Span: Span=(D90−D10)/D50; for Span / D × 10 (μm) / D × 50 (μm) / D × 90 (μm) / D × 97 (μm) / ≤10 μm: Table 1; for ≤10 μm: fraction of particles ≤10 μm; for d10 / d50 / d90: 350 kg batch, laser diffraction, Table 3
Experimental: As use herein, the particle size is expressed in terms of volume diameter and the particle size distribution is expressed in terms of D50, D10, D90 and span.
In certain embodiments, the particle size described herein are measured using a laser diffraction technique that correlates light scattering to particle volume on which effective length or effective diameter is calculated. The distribution is based on a measurement of thousands of particles. Particle samples can be in dry form or in slurry. In one embodiment, the instrument used to determine particle size/distribution is a Beckman Coulter LS230 or a Malvern Mastersizer.
As used herein, “D50”, also known as the median diameter, corresponds to the value under which 50% of the particles has a lower volume diameter. “D90” corresponds to the value under which 90% of the particles has a lower volume diameter. “D10” corresponds to the value under which 10% of the particles has a lower volume diameter.
As used herein, “span” is a measure for particle size distribution. It is calculated according to the following equation: Span=(D90−D10)/D50

[3] = FT4 Powder Rheometer shear test (flow function); details: for Flow Function: FT4, Table 2, FF=MPS/UYS; for Flow Function (FF): 350 kg batch, FT4, Table 3
Experimental: Shear testing measures powder shear properties which involves the stress limit required to initiate a powder flow. The shear testing uses a segmented rotational shear cell head and a 10 ml powder sample in the borosilicate test vessel. Powder is filled into the vessel. The shear cell head is simultaneously rotated and moved axially under the powder sample at pre-determined normal stresses as the shear stresses are measured to calculate several parameters, including the flow function (FF). As used herein, “flow function” or FF is a parameter commonly used to rank powder's flowability and is determined using a shear test. The data produced in the shear test represents the relationship between shear stress and normal stress, which can be plotted to define the powder's Yield Locus, which is shown in FIG. 21. Fitting Mohr stress circles to the yield locus identifies the Major Principle Stress (MPS) and Unconfined Yield Strength (UYS). Flow function is the ratio of Major Principle Stress (MPS) to the Unconfined Yield Strength (UYS): FF=MPS/UYS. Usually, powders of low cohesion have higher FF and that represents better flow properties. Shear testing measures powder shear properties which involves the stress limit required to initiate a powder flow. The shear testing used a segmented rotational shear cell head and a 10 ml powder sample in the borosilicate test vessel. Powder was filled into the vessel. The shear cell head was simultaneously rotated and moved axially unto the powder sample at pre-determined normal stresses as the shear stresses were measured to calculate several parameters that include the flow function (FF) and powder cohesion (in kPa). Usually, powders of low cohesion have higher FF and that represents better flow properties.

[4] = Particle morphology by Malvern Morphologi G3; details: compared to jet milled material
Experimental: As used herein, “aspect ratio” is the ratio of width divided by length of a particle. “Elongation” is defined as 1-aspect ratio. Shapes symmetrical in all axes, such as circles or squares, will tend to have an elongation close to 0, whereas needle-shaped particles will have values closer to 1. Elongation is more an indication of overall form than surface roughness. As used herein, “convexity” is a measurement of the surface roughness of a particle and is calculated by dividing the perimeter of an imaginary elastic band around the particle by the true perimeter of the particle. A smooth shape, regardless of form, has a convexity of 1 while a very ‘spiky’ or irregular object has a convexity closer to 0. As used herein, “circularity” or “high sensitivity circularity” is a measurement of the ratio of […]. A perfect circle has a circularity of 1 while a very narrow rod has a High Sensitivity (HS) Circularity close to 0. The higher the HS Circularity value the closer it is to a circle. Intuitively, circularity is a measure of irregularity or the difference from a perfect circle. […] The percentage of thicker particles can be determined using Malvern Instrument Morphologi G3. […] The intensity of light is quantified by the grey scale factor which depends on the amount of light reaching the detector. […]

[5] = Comparison of unmilled coarse DMF versus wet-milled DMF for enteric coating in fluid bed; details: for Coated crystals: enterically coated particles made from the named API; for Flow of API particle in fluid bed: fluid bed coating process; for Particle morphology: uncoated API particles
Experimental: The enteric coated DMF is prepared using a Glatt GPCG-2 fluid bed granulator with a 6′ Wurster column. Dissolution was run with USP apparatus II by the Pharmaceutical Analytical Development Department with the following method.
DMF first de-lumped with a Frewitt Comill with screen size 1.0 mm. Then, it is mixed with silicon dioxide (Aerosil) and being fluidize in the fluid bed granulator for 5 minutes.
Eudragit L100 and triethyl citrate is used for coating an enteric layer for stomach acid protection on the DMF API particles. Samples were taken at different L100 weight gain to compare gastric protection capability.
Unmilled coarse DMF were coated according to the method of described in Example 5. Various properties of the unmilled coarse DMF and enterically coated DMF are compared with wet-milled DMF and enterically coated DMF made from wet-milled DMF.

[6] = Flow of drug product blend measured with Flodex; details: blends of DMF with other excipients as in approved twice a day formulation; FIG. 1
Description: The y-axis indicates the aperture of cone containing the blend powder. Smaller aperture indicates better flow.

[7] = FT4, Table 2, no unit printed in table (mJ/g)
[8] = listed as wet-milled DMF particles

Row | Flow Rate Index ([1]; FT4, Table 2) | Specific Energy [1, 7] | Span [2] | D × 10 (μm) [2] | D × 50 (μm) [2] | D × 90 (μm) [2] | D × 97 (μm) [2] | ≤10 μm [2] | Flow Function [3] | Structure (SMILES) | also measured
1 | 1.68 | 8.67 | 1.593 | 44.1 μm | 113 μm | 224 μm | 294 μm | 2.32% | 12.84 | COC(=O)/C=C/C(=O)OC [Batch A14DS0978, dimethyl fumarate] | 
2 | 1.54 | 9.19 | 1.772 | 33.1 μm | 87.8 μm | 189 μm | 257 μm | 2.89% | 5.97 | COC(=O)/C=C/C(=O)OC [Batch A14DS1097, dimethyl fumarate] | 
3 | 1.50 | 5.48 |  |  |  |  |  |  | 2.25 | COC(=O)/C=C/C(=O)OC [Batch B1417-140304, dimethyl fumarate] | 

The next lines start with the compound.

Row | Structure (SMILES) | Flow Rate Index ([1]; FT4, Table 2) | Specific Energy [1, 7] | Span [2] | D × 10 (μm) [2] | D × 50 (μm) [2] | D × 90 (μm) [2] | D × 97 (μm) [2] | ≤10 μm [2] | Flow Function [3] | also measured
4 | COC(=O)/C=C/C(=O)OC [2014-4281-A.4, dimethyl fumarate] | 1.11 | 4.87 | 1.562 | 31.9 μm | 96 μm | 182 μm | 235 μm | 2.61% | 5.84 | 
5 | COC(=O)/C=C/C(=O)OC [2014-4281-A.8, dimethyl fumarate] | 1.37 | 6.64 | 1.71 | 27.2 μm | 70.8 μm | 148 μm | 208 μm | 3.87% | 3.29 | 
6 | COC(=O)/C=C/C(=O)OC [2014-4281-A.9, dimethyl fumarate] | 1.33 | 6.42 | 1.58 | 26.8 μm | 88.2 μm | 166 μm | 210 μm | 3.02% | 2.50 | 
7 | COC(=O)/C=C/C(=O)OC [Batch 11P1310, dimethyl fumarate] |  |  | 2.05 | 9 μm | 30 μm | 70 μm | 97 μm | 11.48% |  | 
8 | COC(=O)/C=C/C(=O)OC [Batch A14DS0977, dimethyl fumarate] |  |  | 1.554 | 51.5 μm | 127 μm | 249 μm | 319 μm | 1.87% |  | 
9 | COC(=O)/C=C/C(=O)OC [Run 1, dimethyl fumarate] |  |  |  |  |  |  |  |  |  | Flow rate Index (FRI) ([1]; 350 kg batch, FT4, Table 3): 1.61; Specific Energy ([1]; 350 kg batch, FT4, Table 3): 12.21 mJ/g; d10 [2]: 35 μm; d50 [2]: 83 μm; d90 [2]: 156 μm; Flow Function (FF) [3]: 10.3
10 | COC(=O)/C=C/C(=O)OC [Run 2, dimethyl fumarate] |  |  |  |  |  |  |  |  |  | Flow rate Index (FRI) ([1]; 350 kg batch, FT4, Table 3): 1.39; Specific Energy ([1]; 350 kg batch, FT4, Table 3): 12.18 mJ/g; d10 [2]: 39 μm; d50 [2]: 83 μm; d90 [2]: 150 μm; Flow Function (FF) [3]: 4.95
11 | COC(=O)/C=C/C(=O)OC [Wet milled API, dimethyl fumarate] |  |  |  |  |  |  |  |  |  | Particle shape (aspect ratio, HS circularity, convexity) [4]: slightly less elongated, more circular and less edgy; Thick particles (percentage of particles with intensity <80) [4]: contained more thick particles; Coated crystals [5]: Isolated and small; Coated crystals [5, 8]: small coated particles with uniform size distribution; Flow of API particle in fluid bed [5]: uniform flow; Flow of API particle in fluid bed [5, 8]: desirable flowability; Particle morphology [5]: 3D structure; Particle morphology [5, 8]: three dimensional morphology; Particle size D50 ([5]; uncoated API, Table 8): D50 = 60-100 μm; Powder flow of drug product blend [6]: improvement in powder flow
